According to patent US20240174641A1, “HETEROCYCLIC COMPOUNDS CAPABLE OF […]” (Boehringer Ingelheim International GmbH, priority 2022, published 2024):

How the values were obtained:
dog STING (dSTING) = assay: Dog differential scanning fluorimetry (DSF) assay, thermal shift of dog STING protein; format: binding; details: DSF (dDSF); 100 μM compound, 3 μM dog STING protein; Tm with ligand minus Tm of protein alone
Source text: The protein used for the biophysical experiments was a recombinant dog STING protein comprising its cytosolic cGAMP binding ectodomain. A codon optimized DNA sequence (for expression in Escherichia coli) encoding amino acid residues 149 to 375 of dog STING was synthesized by GeneArt (Regensburg, Germany) and inserted into a pET17b E. coli expression vector. The protein construct encodes an N-terminal 8×His-tag followed by tobacco etch virus protease (TEV) cleavage site and the above STING gene sequence. The resulting protein sequence for the used dog STING protein (SEQ ID No. 1) is listed below:
For expression of the above recombinant dog STING, the construct was transformed into E. coli BL21 DE3 strain and grown in shake flasks in LB-medium at 15° C. Expression was induced by addition of isopropyl β-D-1-thiogalactopyranoside to a final concentration of 1 mM and cultures shaken overnight. Cell pellets were centrifuged and stored at −70° C. until further use. Protein was purified by cell thawing in lysis buffer (20 mM TRIS-HCl, pH 8, 500 mM NaCl, 1 mM DTT, 0.5 mg/ml lysozyme, Complete Protease Inhibitor (Roche) and DNase (Roche)), followed by metal affinity purification using Ni-NTA resins and elution buffer consisting of 20 mM TRIS-HCl, pH 8, 500 mM NaCl, 1 mM DTT, 300 mM imidazole. Cleavage of the His-Tag using TEV-protease took place during dialysis in size exclusion buffer (20 mM TRIS-HCl, pH 8, 100 mM NaCl, 1 mM DTT) over night. To further purify the target protein a reverse Nickel affinity column was used and the flow through was applied to a size exclusion chromatography. The peak fraction was collected and concentrated to 5 mg/mL.
Dye fluorescence is quenched in aqueous environment and increases upon association of the dye with the hydrophobic parts of the unfolding protein. […] The inflection point of the curve represents the “melting” temperature of the protein (Tm) which is calculated numerically using the Boltzmann equation.
The thermal stability of the dog STING protein was measured in assay buffer containing 20 mM Tris, 150 mM NaCl at pH7.5. The assay uses 384-Well qPCR Plates (Catalog #781358, BRAND), Microseal® ‘B’ Adhesive Seals for PCR Plates (Catalog #MSB-1001, BIO-RAD) and was run on a CFX384 Real-Time System (Bio-Rad). A DMSO stock solution of SYPRO orange (SIGMA 55692-500UL) was prepared. Compound stock solutions (10 mM in DMSO) were diluted 1:2 in DMSO to an intermediate compound concentration of 5 mM and then further diluted 1:40 in assay buffer resulting in a compound concentration of 125 μM and 2.5% DMSO. Fluorescent dye stock solution (5000×SYPRO Orange) was then mixed with target protein and buffer to a concentration of 15 μM Protein and 25×SYPRO Orange. 2 μl of this protein-dye-mixture was added to 8 μl compound solution. Final volume was 10 μL. 3-6 well positions were used as negative control (protein with 2% DMSO). The plates were prepared for duplicate measurement and centrifuged for 2 min at 1000 g. In the measurement, 160 cycles of 0.5° C. were used (temperature ramp 15 s/cycle, 15° C. to 95° C.).
Final Assay concentrations for compound characterization were 100 μM compound, 3 μM target protein, 5×SYPRO Orange, and 2% DMSO in 10 μl. All dispensing steps were performed using a HamiltonStar pipetting robot (Hamilton).
Dissociation curves were processed in Bio-Rad CFX Manager. Peak type was set to “negative”. Compound codes for screen were assigned in the plate layout.
Two replicates of TM measurements were averaged, and the standard deviation was calculated. In cases of SD>1.5° C. the measurement was repeated.
The melting point (Tm) obtained for STING protein alone was subtracted from T obtained for protein incubated with ligand to generate ΔTm values.

STING = STING (Canis lupus familiaris, UniProt A0A8I3MH52); assay: Dog whole blood (dWB) assay, IFNb secretion by ELISA; format: cell-based; details: canine Interferon-beta (IFNb) ELISA, 4 h incubation at 37° C.
Chain of STING (A0A8I3MH52 1-374): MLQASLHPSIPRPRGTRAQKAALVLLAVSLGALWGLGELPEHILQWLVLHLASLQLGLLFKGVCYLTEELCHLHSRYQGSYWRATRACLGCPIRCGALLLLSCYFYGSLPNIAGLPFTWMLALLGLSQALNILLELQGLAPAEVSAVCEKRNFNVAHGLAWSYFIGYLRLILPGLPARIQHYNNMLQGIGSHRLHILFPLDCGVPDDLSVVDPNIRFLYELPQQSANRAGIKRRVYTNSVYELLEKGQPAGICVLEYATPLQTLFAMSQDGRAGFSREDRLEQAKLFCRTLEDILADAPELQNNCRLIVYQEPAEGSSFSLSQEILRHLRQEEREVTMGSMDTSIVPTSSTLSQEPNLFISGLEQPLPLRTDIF
Description: For the detection of STING activation in physiological environment dog whole blood (dWB) was stimulated by the cyclic dinucleotide cGAMP or a test compound. Pathway activity was monitored by measuring the IFNb production.
Compounds were delivered as 10 mM DMSO solution, diluted and transferred by using an Echo acoustic dispenser to the 384 well assay plate (Greiner #781182), pre-filled with 10 μl 1×HBSS in each well (10×HBSS (+Ca/+Mg), #14065-049, Gibco). Typically, 8 concentrations were used with the highest concentration at 10 μM in the final assay volume followed by approximately 1:4 dilution steps. DMSO concentration was set to 0.1% in the final assay volume. The 384-well assay plate contained 20 test compounds and DMSO in control and cGAMP standard wells. The dog whole blood was collected as Na-Citrate blood (e.g., 3.8% in Monovettes from Sarstedt) and kept at 4° C. overnight until use in the assay. 80 μl of the whole blood samples were transferred to each well of the 384-well assay plates filled with compound/1×HBSS. Blood plates were kept at room temperature for 60 minutes and continuous shaking with 450 rpm, covered with the lid, but not sealed. A 10×cGAMP assay solution was diluted from a 2 mM stock solution in 1×HBSS immediately before use at room temperature. 10 μl of the 10×cGAMP/HBSS were added to the high control wells, whereas HBSS only was added to all compound and low control wells. After covering assay plates with the lid, blood plates were kept for a 4 h incubation at 37° C. in the incubator, without shaking. For the detection of IFNb in dog plasma the ELISA Kit for Canine Interferon Beta (Biotrend #SEA222Ca) was used. Whole blood assay plates were centrifuged at 1000 g for 10 minutes at 8° C. […] was transferred with a 96 well pipetting robotics from the 384 well whole blood plate to the corresponding 96 well ELISA plate, pre-filled with 60 μl assay diluent in each well. Plates were sealed with microplate seals and kept at 4° C. overnight again. ELISA plates were brought to room temperature, followed by a 1 h incubation at 37° C. in the incubator. Detection Reagent A working solution was prepared by diluting Detection Reagent A 1:100 in Assay Reagent A. Liquid was then removed from the 96 well ELISA plate to add 100 μL Detection Reagent A working solution to each well. ELISA plates were covered with the plate sealer and incubated for 1 hour at 37° C. in the incubator. The 1× Wash buffer was prepared by diluting the 30× Wash Buffer Concentrate in H2O. Detection Reagent B working solution was prepared by diluting Detection Reagent B 1:100 in Assay Reagent B. The ELISA plates were washed three times with 350 μl wash buffer and afterwards inverted and blotted against absorbent paper to remove any liquid. 100 μL of Detection Reagent B working solution was added to each well of the ELISA plates, which are then covered with the plate sealer and incubated for 30 minutes at 37° C. in the incubator. After incubation the ELISA assay plates were washed five times with 350 μl wash buffer and were again inverted and blotted against absorbent paper to remove any remaining liquid. 90 μL of TMB Substrate was added to each well of the ELISA plates, which were then covered with the plate sealer and incubated for 15 minutes at 37° C. in the incubator. The reaction was stopped by adding 50 μL stop solution and absorbance was measured at 450 nm immediately.
For data evaluation and calculation, % control calculation of each well was based on the mean of high (cGAMP stimulated control) and mean of low (unstimulated control) controls by using the following standard 4 parameter logistic regression formula:
[y=(a−d)/(1+(x/c)^b)+d] • a=low value, • d=high value, • x=conc M, • c=EC50 M, • b=slope. Dog Liver Microsome (dLM) Assay

With `Cc1cccc2c(-c3ccc(F)c4nn(C)cc34)nn(-c3ccc(N4CCC(C(=O)O)CC4)nc3)c12` [Example 4, 1-(5-{7″-Fluoro-2″,7-dimethyl-1H,2″H-[3,4″-biindazol]-1-yl}pyridin-2-yl)piperidine-4-carboxylic acid] the “Delta TM” value (dog STING (dSTING)) was 31.0 °C and the EC50 (STING) was 757 nM.

With `Cc1cccc2c(-c3c(F)ccc4nn(C)cc34)nn(-c3ccc(N4C[C@@H]5[C@H](C4)[C@H]5C(=O)O)nc3)c12` [Example 5, (1R,5S,6S)-3-(5-{5″-Fluoro-2″,7-dimethyl-1H,2″H-[3,4″-biindazol]-1-yl}pyridin-2-yl)-3-azabicyclo[3.1.0]hexane-6-carboxylic acid] the “Delta TM” value (dog STING (dSTING)) was 36.5 °C and the EC50 (STING) was 282 nM.

With `Cc1cccc2c(-c3c(F)ccc4nn(C)cc34)nn(-c3ccc(N4CCC(C(=O)O)CC4)nc3)c12` [Example 6, 1-(5-{5″-Fluoro-2″,7-dimethyl-1H,2″H-[3,4″-biindazol]-1-yl}pyridin-2-yl)piperidine-4-carboxylic acid] the “Delta TM” value (dog STING (dSTING)) was 35.5 °C and the EC50 (STING) was 243 nM.

`Cc1cccc2c(-c3c(F)cc(F)c4nn(C)cc34)nn(-c3ccc(N4C[C@@H]5[C@H](C4)[C@H]5C(=O)O)nc3)c12` [Example 7, (1R,5S,6S)-3-(5-{5″,7″-Difluoro-2″,7-dimethyl-1H,2″H-[3,4″-biindazol]-1-yl}pyridin-2-yl)-3-zabicyclo[3.1.0]hexane-6-carboxylic acid] was tested, and the “Delta TM” value (dog STING (dSTING)) was 35.5 °C and the EC50 (STING) was 250 nM.

`CC(=O)N1CCN(c2ccc(-n3nc(-c4cccc5nn(C)c(F)c45)c4cccc(C)c43)cn2)CC1` [Example 8, 1-[4-(5-{3″-Fluoro-2″,7-dimethyl-1H,2″H-[3,4″-biindazol]-1-yl}pyridin-2-yl)piperazin-1-yl]ethan-1-one] was tested, and the “Delta TM” value (dog STING (dSTING)) was 32.5 °C and the EC50 (STING) was 168 nM.

For `Cc1cccc2c(-c3cccc4nn(C)c(F)c34)nn(-c3ccc(N4CCN(C=O)CC4)nc3)c12` [Example 9, 4-(5-{3″-Fluoro-2″,7-dimethyl-1H,2″H-[3,4″-biindazol]-1-yl}pyridin-2-yl)piperazine-1-carbaldehyde], the “Delta TM” value (dog STING (dSTING)) was 28.5 °C and the EC50 (STING) was 192 nM.

In the case of `Cc1cc(F)cc2c(-c3cccc4nn(C)c(F)c34)nn(-c3ccc(N4C[C@@H]5[C@H](C4)[C@H]5C(=O)O)nc3)c12` [Example 10, (1R,5S,6R)-3-(5-{3′,5-Difluoro-2′,7-dimethyl-1H,2′H-[3,4′-biindazol]-1-yl}pyridin-2-yl)-3-azabicyclo[3.1.0]hexane-6-carboxylic acid], the “Delta TM” value (dog STING (dSTING)) is reported as 33.1 °C and the EC50 (STING) is reported as 350 nM.

With `Cc1c(F)ccc2c(-c3cccc4nn(C)c(F)c34)nn(-c3ccc(N4C[C@@H]5[C@H](C4)[C@H]5C(=O)O)nc3)c12` [Example 11, (1R,5S,6R)-3-(5-{3″,6-Difluoro-2″,7-dimethyl-1H,2″H-[3,4″-biindazol]-1-yl}pyridin-2-yl)-3-azabicyclo[3.1.0]hexane-6-carboxylic acid] the “Delta TM” value (dog STING (dSTING)) was 34.8 °C and the EC50 (STING) was 458 nM.

`Cc1cc(F)cc2c(-c3ccc(F)c4nn(C)cc34)nn(-c3ccc(N4C[C@@H]5[C@H](C4)[C@H]5C(=O)O)nc3)c12` [Example 12, (1R,5S,6R)-3-(5-{5,7″-Difluoro-2″,7-dimethyl-1H,2″H-[3,4″-biindazol]-1-yl}pyridin-2-yl)-3-azabicyclo[3.1.0]hexane-6-carboxylic acid] was tested, and the “Delta TM” value (dog STING (dSTING)) was 21.7 °C and the EC50 (STING) was 609 nM.

For `Cc1cccc2c(-c3ccc(F)c4nn(C)c(F)c34)nn(-c3ccc(N4C[C@@H]5[C@H](C4)[C@H]5C(=O)O)nc3)c12` [Example 13, (1R,5S,6R)-3-(5-{3″,7″-Difluoro-2″,7-dimethyl-1H,2″H-[3,4″-biindazol]-1-yl}pyridin-2-yl)-3-azabicyclo[3.1.0]hexane-6-carboxylic acid], the “Delta TM” value (dog STING (dSTING)) was 33.3 °C and the EC50 (STING) was 174 nM.

In the case of `Cc1cc(F)cc2c(-c3c(F)ccc4nn(C)cc34)nn(-c3ccc(N4C[C@@H]5[C@H](C4)[C@H]5C(=O)O)nc3)c12` [Example 14, (1R,5S,6R)-3-(5-{5,5″-Difluoro-2″,7-dimethyl-1H,2″H-[3,4″-biindazol]-1-yl}pyridin-2-yl)-3-azabicyclo[3.1.0]hexane-6-carboxylic acid], the “Delta TM” value (dog STING (dSTING)) is reported as 38.0 °C and the EC50 (STING) is reported as 391 nM.

`Cc1cc(F)cc2c(-c3c(F)cc(F)c4nn(C)cc34)nn(-c3ccc(N4C[C@@H]5[C@H](C4)[C@H]5C(=O)O)nc3)c12` [Example 15, (1R,5S,6R)-3-(5-{5,5″,7″-Trifluoro-2″,7-dimethyl-1H,2″H-[3,4″-biindazol]-1-yl}pyridin-2-yl)-3-azabicyclo[3.1.0]hexane-6-carboxylic acid] was tested, and the “Delta TM” value (dog STING (dSTING)) was 36.8 °C and the EC50 (STING) was 1170 nM.

For `Cc1cccc2c(-c3cccc4nn(C)c(F)c34)nn(-c3ccc(N4CC[C@@H](CC(=O)O)C4)nc3)c12` [Example 16, 2-[(3S)-1-(5-{3″-fluoro-2″,7-dimethyl-1H,2″H-[3,4″-biindazol]-1-yl}pyridin-2-yl)pyrrolidin-3-yl]acetic acid], the “Delta TM” value (dog STING (dSTING)) was 34.0 °C and the EC50 (STING) was 267 nM.
